pIC50: −log10 of the molar value.
Assays:
[1] = target: T1, S-adenosylmethionine synthase isoform type-2 (Homo sapiens, UniProt P31153); assay: Inhibition of recombinant human MAT2A expressed in baculovirus infected Sf9 cells using L-methionine as substrate incubated for 60 mins followed by substrate addition and measured after 60 mins by S-adenosyl methionine assay kit method
[2] = target: T1, S-adenosylmethionine synthase isoform type-2; assay: Inhibition of MAT2A in human HCT-116 cells assessed as reduction in SAM incubated for 72 hrs by LC-MS/MS analysis; assay type: cell-based
HCT-116 [3] = assay: Antiproliferative activity against isogenic pair of human HCT-116 cells harboring […] del mutant assessed as reduction in cell growth incubated for 4 days by Cell Titer-Glo assay; assay type: cell-based; conditions: HCT-116, 96 h
HCT-116 [4] = assay: Antiproliferative activity against human HCT-116 cells harboring wild type […] assessed as reduction in cell growth incubated for 4 days by Cell Titer-Glo assay; assay type: functional, cell-based; conditions: HCT-116, 96 h

T1 sequence (P31153 whole entry, canonical isoform): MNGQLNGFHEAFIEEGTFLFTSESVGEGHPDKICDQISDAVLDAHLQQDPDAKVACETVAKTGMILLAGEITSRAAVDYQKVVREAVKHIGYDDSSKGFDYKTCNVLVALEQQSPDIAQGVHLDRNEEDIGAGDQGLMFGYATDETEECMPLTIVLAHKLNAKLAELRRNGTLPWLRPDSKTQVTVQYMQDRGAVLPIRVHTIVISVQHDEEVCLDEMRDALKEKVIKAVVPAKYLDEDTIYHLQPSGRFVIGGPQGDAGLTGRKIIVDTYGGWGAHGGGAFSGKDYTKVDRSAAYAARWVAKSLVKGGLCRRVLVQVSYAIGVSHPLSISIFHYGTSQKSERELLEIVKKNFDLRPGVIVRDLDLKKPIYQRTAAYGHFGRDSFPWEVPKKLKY

SMILES | pIC50 [1] | pIC50 [2] | pIC50 (HCT-116 [3]) | pIC50 (HCT-116 [4])
[2H]C([2H])([2H])Oc1c2cc(-n3nc4ccc(OCC(F)F)nc4c(-c4ccc(OC(F)F)cc4)c3=O)ccc2nn1C | > 7.00 | > 7.00 | > 7.00 | ≤ 7.00
Cn1cc2cc(-n3nc4ccc(OCC(F)(F)F)nc4c(-c4ccc(Cl)cc4)c3=O)ccc2n1 | > 7.00 | > 7.00 | > 7.00 | ≤ 7.00
Cn1cc2cc(-n3nc4ccc(OCC(F)(F)F)nc4c(-c4ccc(OC(F)F)cc4)c3=O)ccc2n1 | > 7.00 | > 7.00 | > 7.00 | ≤ 7.00
CCOc1ccc2nn(-c3ccc4nn(C)cc4c3)c(=O)c(-c3ccc(OC)cc3)c2n1 | > 7.00 | > 7.00 | > 7.00 | ≤ 7.00
COc1ccc(-c2c(=O)n(-c3ccc4nn(C)cc4c3)nc3ccc(OCC(F)F)nc23)cn1 | > 7.00 | > 7.00 | > 7.00 | ≤ 7.00
Cn1cc2cc(-n3nc4ccc(OCC(F)F)nc4c(-c4ccc(OC(F)F)cc4)c3=O)ccc2n1 | > 7.00 | > 7.00 | > 7.00 | ≤ 7.00
O=c1c(-c2ccc(OC(F)F)cc2)c2nc(OCC(F)F)ccc2nn1-c1ccc2ncsc2c1 | > 7.00 | > 7.00 | > 7.00 | > 7.00
Cn1cc2cc(-n3nc4ccc(SCC(F)(F)F)nc4c(-c4ccc(OC(F)F)cc4)c3=O)ccc2n1 | > 7.00 | > 7.00 | > 7.00 | ≤ 7.00
Cn1cc2cc(-n3nc4ccc(OCCC(F)(F)F)nc4c(-c4ccc(OC(F)F)cc4)c3=O)ccc2n1 | > 7.00 | ≤ 7.00 | ≤ 7.00 | ≤ 6.00
O=c1c(-c2ccc(OC(F)F)cc2)c2nc(OCC(F)F)ccc2nn1-c1ccc2c(c1)CCO2 | > 7.00 | > 7.00 | > 7.00 | ≤ 7.00

From ChEMBL document CHEMBL4715922, “Methionine Adenosyltransferase Inhibitors for the Treatment of Cancer” (ACS Med Chem Lett, 2021)
